According to PubChem BioAssay (NCI):
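Cells were grown in 96-well plates and exposed to each compound for 48 hours at five concentrations; endpoints were interpolated linearly between bracketing concentrations, or set to the highest concentration if not reached. Here, GI50 denotes the concentration required for 50% inhibition of growth. TGI: total growth inhibition.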

What was measured:
Test in all cases: DTP human tumour cell line panel, 48 h
CAKI-1 renal = system: CAKI-1 renal
DU-145 prostate = system: DU-145 prostate
NCI-H522 lung = system: NCI-H522 lung
UACC-257 melanoma = system: UACC-257 melanoma
ACHN renal = system: ACHN renal
HCT-116 colon = system: HCT-116 colon
MCF7 breast = system: MCF7 breast
MDA-MB-231 breast = system: MDA-MB-231 breast
NCI-H23 lung = system: NCI-H23 lung
NCI/ADR-RES ovarian = system: NCI/ADR-RES ovarian

Row | Compound | GI50 (CAKI-1 renal) [µM] | TGI (CAKI-1 renal) [µM] | GI50 (DU-145 prostate) [µM] | TGI (DU-145 prostate) [µM] | GI50 (NCI-H522 lung) [µM] | TGI (NCI-H522 lung) [µM] | GI50 (UACC-257 melanoma) [µM] | TGI (UACC-257 melanoma) [µM] | TGI (ACHN renal) [µM] | TGI (HCT-116 colon) [µM] | TGI (MCF7 breast) [µM] | TGI (MDA-MB-231 breast) [µM] | TGI (NCI-H23 lung) [µM] | TGI (NCI/ADR-RES ovarian) [µM]
1 | CC(=O)Oc1c(C)c(C)c2c(c1C)CCC(C)(CC(=O)OCCCCCCCCCCC[P+](c1ccccc1)(c1ccccc1)c1ccccc1)O2 (centres undefined) | 1.72 | 3.27 | 0.384 | 1.34 | 0.21 | 0.666 | 0.268 | 0.78 |  |  |  |  |  | 
2 | O=C1OC(c2ccccc2)N(C(=O)c2ccccc2)C1Cc1ccc(OCc2ccccc2)cc1 (centres undefined) |  |  |  | > 100 |  |  |  |  | > 100 | > 100 | 62.3 | 23.9 | > 100 | > 100
3 | COc1cc(/C=C2\CCC(C)/C(=C\c3cc(OC)c(OC)c(OC)c3)C2=O)cc(OC)c1OC (centres undefined) |  | 6.71 |  | > 100 |  |  |  | 21.3 | 13.1 | > 100 | > 100 | > 100 |  | 
4 | COc1ccc(C2c3cc4c(cc3OC(NCCO)C2C)OCO4)cc1 (centres undefined) |  | 77.1 |  | > 100 |  | 47.8 |  | 72.4 | 93.1 | 31 | 66.7 | 63.3 | > 100 | 
5 | O=S1(=O)c2cnccc2NC(=NCc2ccccc2)N1c1ccccc1 |  | > 100 |  | > 100 |  | > 100 |  | > 100 | > 100 | > 100 | > 100 |  | > 100 | > 100
6 | CC1=NNC(=O)C1C1CC(c2c[nH]c3ccccc23)=NN=C1Cl (centres undefined) |  | > 100 |  | > 100 |  | > 100 |  | > 100 | > 100 | > 100 |  | > 100 | > 100 | > 100
7 | COC(=O)N1N=C(c2ccccc2)C1c1ccccc1 (centres undefined) |  | > 100 |  | > 100 |  |  |  | 77.4 |  | > 100 | > 100 | > 100 | 88 | 69.2
8 | Cc1cccc(/C(Br)=C2/OC(=O)c3ccccc32)c1 |  | > 100 |  | > 100 |  | > 100 |  | > 100 | > 100 | > 100 | > 100 |  | > 100 | 
9 | Nc1nc(Nc2ccccc2)sc1C(=O)c1ccco1 |  |  |  | 40.8 |  |  |  | 68.9 | 62.2 | 36.7 | 26.3 | 97.7 | 35.9 | 65.5
10 | COC(=O)C1(O)C(c2ccccc2)=NC2(C)CCCC21 (centres undefined) |  | > 100 |  | > 100 |  | > 100 |  | > 100 |  | > 100 |  | > 100 | > 100 | > 100
11 | Cc1c(-c2ccccc2)[nH]n(C2=NCCN2)c1=O |  | > 100 |  |  |  | > 100 |  | > 100 | > 100 | > 100 | > 100 | > 100 | > 100 | > 100
12 | O=[N+]([O-])c1cccc2c(N=Nc3ccc4ccccc4c3O)c(O)cc(S(=O)(=O)O)c12 |  | > 100 |  |  |  | > 100 |  | > 100 | > 100 | > 100 |  |  | > 100 | > 100
13 | CSc1nc2c(ncn2C2OC(CO)C(O)C(O)C2O)c(=O)[nH]1 (centres undefined) |  |  |  |  |  | > 100 |  | > 100 |  | > 100 | > 100 |  | > 100 | > 100
14 | O=C1C2=C(CCC2)Nc2cccc3ncn1c23 |  |  |  |  |  | > 100 |  | > 100 | > 100 | > 100 |  |  | > 100 | 
15 | C=C1C(=O)C23C(O)CC4C5(C)CCCC4(C(O)OC5)C2C(OC(C)=O)CC1C3O (centres undefined) |  | 17.8 |  |  |  | 3.64 |  |  | 25.3 | 18.5 |  |  | 19.3 | 
16 | Cc1cc(C)c(/C=C(\C(=C/c2c(C)cc(C)cc2C)[N+](=O)[O-])[N+](=O)[O-])c(C)c1 |  | > 100 |  | > 100 |  |  |  | > 100 | > 100 | > 100 | > 100 | > 100 | > 100 | 
17 | CCOP(=O)(OCC)OC1CC(n2cc(C)c(=O)n(C)c2=O)OC1CO[Si](C)(C)C(C)(C)C (centres undefined) |  | > 100 |  | > 100 |  | > 100 |  | > 100 | > 100 | > 100 | > 100 |  | > 100 | > 100
18 | O=[N+]([O-])/C(Cl)=C(\NCCN/C(C(Cl)=C(Cl)Cl)=C(/Cl)[N+](=O)[O-])C(Cl)=C(Cl)Cl |  | > 100 |  | > 100 |  |  |  |  | > 100 | > 100 | > 100 | > 100 | > 100 | > 100
19 | O=C(O)/C=C\C(=O)Nc1ccc(S(=O)(=O)c2ccc(NC(=O)/C=C\C(=O)O)cc2)cc1 |  | > 100 |  |  |  | > 100 |  | > 100 | > 100 | > 100 |  |  | > 100 | 
20 | COc1ccc(/C=N/n2c(C)nc3c(sc(=S)n3-c3ccccc3)c2=O)cc1 |  |  |  |  |  | 46.4 |  | > 100 | > 100 | > 100 |  |  | > 100 | 
